Series [1] deals with T1, PD-L1 expressed by CT26.CL25 cells (Mus musculus, UniProt Q9EP73).
T1 construct: PD-L1 expressed by CT26.CL25 cells; endogenous in cells; host or cells: CT26.CL25 cells
Briefly: Binding of Cy5.5-labeled conjugate to PD-L1 on CT26.CL25 cells (fluorescence microscopy). Particulars: 200 nM, 30 minutes at 4° C., no antibody pre-treatment. The protocol: We tested whether the PD-L1 binding peptide-siRNA conjugate of Example 1 was able to specifically bind PD-L1 expressed by CT26.CL25 cells by incubating the PD-L1 binding peptide-siRNA conjugate of Example 1 with CT26.CL25 cells that either had, or had not, been pre-treated with an anti-PD-L1 antibody. As a control, CT26.CL25 cells were incubated with the unconjugated anti-PD-L1 siRNA of Example 1.
Here, 2 ml of CT26.CL25 cells (at 5×10^6 cells/ml) were seeded into each of four dishes. 24 hours after seeding, and one hour before treatment with the conjugate of Example 1, one dish was pre-treated with 1 ml of anti-PD-L1 antibody (InVivoMAb anti-mouse PD-L1, BioXCell Cat. #BE0101) at 1 mg/ml. After incubation with the antibody, the pre-treated cells were incubated with 1 ml (200 nM) of the conjugate of Example 1 for 30 minutes at 4° C. At the same time, a dish that had not been pre-treated was similarly incubated with the conjugate of Example 1, and another dish that had not been pre-treated was similarly incubated with the unconjugated anti-PD-L1 siRNA of Example 1.
Cells were then fixated with 4% paraformaldehyde (PFA) for 10 min, then washed twice with DPBS. Nuclei were then stained using Hoechst 33342 (blue of FIG. 2) and the cells were examined for Cy5.5 fluorescence (red of FIG. 2).

Series [2] has as its system B16F10 cells. Description: Internalization by B16F10 cells (Cy5.5 fluorescence microscopy). The format is cell-based. Particulars: 18 hours and 24 hours of incubation. The protocol: B16F10 cells were also incubated with either the PD-L1 binding peptide-siRNA conjugate of Example 1 or the unconjugated Cy5.5-labeled siRNA of Example 1 and similarly fixated after 18 hours and 24 hours of incubation.
(§1) Nuclei were stained using Hoechst 33342 (blue of FIGS. 3 and 4) and the cells were examined for Cy5.5 fluorescence (red of FIGS. 3 and 4).

Series [3] relates to CT26.CL25 cells. Description: Internalization by CT26.CL25 cells (Cy5.5 fluorescence microscopy). Particulars: 9 hours, 18 hours and 24 hours of incubation. Format: cell-based. As for the experimental part:
CT26.CL25 cells were incubated, as described in Example 2, with either the PD-L1 binding peptide-siRNA conjugate of Example 1 or the unconjugated Cy5.5-labeled siRNA of Example 1. After 9 hours, 18 hours, and 24 hours of incubation, cells were then fixated with 4% paraformaldehyde (PFA) for 10 min and washed twice with DPBS.
as §1

The target in series [4] is T2, EGFR expressed by A549 cells (Homo sapiens, UniProt P00533).
T2 construct: EGFR expressed by A549 cells; endogenous in cells; host or cells: A549 cells
Description: Binding of YOYO-1-stained conjugate to EGFR on A549 cells (microscopy). Particulars: 200 nM, 30 minutes. As for the experimental part:
We tested whether the EGFR binding peptide-siRNA conjugate of Example 6 was able to specifically bind EGFR expressed by A549 cells by incubating the EGFR binding peptide-siRNA conjugate of Example 6 with A549 cells. As a control, A549 cells were incubated with the unconjugated anti-EGFR siRNA of Example 6.
A549 cells were treated with 200 nM of either the EGFR-binding peptide-conjugated siRNA of Example 6 or the unconjugated EGFR siRNA of Example 6, each stained with YOYO-1, a nucleic acid staining dye.
After 30 minutes, cells were then fixated with 4% paraformaldehyde (PFA) for 10 minutes, then washed twice with DPBS. Nuclei were then stained using Hoechst 33342 and the cells were examined for YOYO-1 staining.

{DBCO} = dibenzocyclooctyne group for click conjugation; d = 2'-deoxy (DNA); r = 2'-OH (RNA)

T1 sequence (Q9EP73 19-290): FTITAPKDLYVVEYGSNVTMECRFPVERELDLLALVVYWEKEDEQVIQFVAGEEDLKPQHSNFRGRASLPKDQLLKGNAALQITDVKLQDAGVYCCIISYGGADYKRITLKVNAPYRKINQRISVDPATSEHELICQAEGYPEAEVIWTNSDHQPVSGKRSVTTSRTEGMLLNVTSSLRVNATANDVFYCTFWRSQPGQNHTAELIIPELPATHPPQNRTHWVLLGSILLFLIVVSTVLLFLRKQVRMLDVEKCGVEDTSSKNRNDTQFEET

Turning to “unconjugated Cy5.5-labeled siRNA of Example 1: anti-PD-L1 siRNA: sense GACUCAAGAUGGAACCUGAdTdT-[DBCO] (SEQ ID NO:12), antisense dTdTCUGAGUUCUACCUUGGACU-Cy5.5 (SEQ ID NO:13) (sense GACUCAAGAUGGAACCUGATT; antisense TTCUGAGUUCUACCUUGGACU; dTdT overhangs, DBCO, Cy5.5 label, chemistry not fully specified; one strand is listed 3' to 5') [reference compound]”, the “Cy5.5 fluorescence on cells (binding to cell-surface PD-L1)” value in series [1] was “very low levels of Cy5.5 fluorescence”; in series [1] (listed as unconjugated Cy5.5-labeled siRNA) it was “little to no Cy5.5 fluorescence”. The “Internalization (Cy5.5 fluorescence)” value in series [2] and in series [3] was “significantly less Cy5.5 fluorescence” in each case.
For the substance “siRNA: anti-EGFR siRNA: sense AUAGGCAUUGGUGAAUUUAAAGAdCdA-[DBCO] (SEQ ID NO:120), antisense UGUCUUUAAAUUCACCAAUGCCUAUGC (SEQ ID NO:121) (sense AUAGGCAUUGGUGAAUUUAAAGACA; sense: sugars from the 5' end r23 d2, 3' {DBCO}, backbone not given here; antisense: RNA, backbone not given here; sense 3' DBCO clicked to azide EGFR-binding peptide) [reference compound]”, the “YOYO-1 staining on cells (binding to EGFR)” value in series [4] is recorded as “no YOYO-1 staining”.

(Values after US20240325550A1, “Therapeutic Compounds for Inhibiting and Reducing the Expression of Cell Surface Proteins” (KIST (Korea Institute of Science and Technology), priority 2023, published 2024).)
